# Structures can show the parent of a compound that is named as a salt. Where two headings read alike, the source gives them in different places.
# What was measured:
# human OX1 receptor = target: T1, human OX1 receptor (Homo sapiens, UniProt O43613); experiment: Measurement of orexin receptor antagonistic activity (calcium fluorescence, FLIPRtetra); format: cell-based; conditions: for inhibition at 10 µM: CHO, read-out: Human Orexin1 receptor inhibition (at 10 μM)
# T1 construct: expressed in transfected cells; host or cells: CHO cells
# T1 sequence (O43613 1-425): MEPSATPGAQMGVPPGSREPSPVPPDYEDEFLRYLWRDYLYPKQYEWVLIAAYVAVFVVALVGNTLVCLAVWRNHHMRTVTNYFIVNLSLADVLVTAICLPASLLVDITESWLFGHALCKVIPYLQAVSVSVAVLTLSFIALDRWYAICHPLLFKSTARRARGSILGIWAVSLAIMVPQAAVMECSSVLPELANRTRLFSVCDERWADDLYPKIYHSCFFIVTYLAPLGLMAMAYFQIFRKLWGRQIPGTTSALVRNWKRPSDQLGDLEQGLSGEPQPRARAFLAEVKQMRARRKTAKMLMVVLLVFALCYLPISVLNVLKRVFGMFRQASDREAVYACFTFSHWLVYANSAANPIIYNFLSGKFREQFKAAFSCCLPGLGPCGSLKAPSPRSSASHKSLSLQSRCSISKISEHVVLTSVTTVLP
# Summary of the method: (§1)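 CHO cells expressing human OX1 or OX2 receptor, cultured one day. Compound in HBSS/20 mM HEPES/0.1% BSA added, then orexin-A at 1 nM final (OX1) or 0.3 nM final (OX2); calcium fluorescence by FLIPRtetra every 1 s for 2 min.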
# human OX2 receptor = target: T2, human OX2 receptor (Homo sapiens, UniProt O43614); experiment: as above; format: cell-based; conditions: CHO, read-out: Human Orexin2 receptor inhibition (at 10 μM)
# T2 construct: expressed in transfected cells; host or cells: CHO cells
# T2 sequence (O43614 1-444): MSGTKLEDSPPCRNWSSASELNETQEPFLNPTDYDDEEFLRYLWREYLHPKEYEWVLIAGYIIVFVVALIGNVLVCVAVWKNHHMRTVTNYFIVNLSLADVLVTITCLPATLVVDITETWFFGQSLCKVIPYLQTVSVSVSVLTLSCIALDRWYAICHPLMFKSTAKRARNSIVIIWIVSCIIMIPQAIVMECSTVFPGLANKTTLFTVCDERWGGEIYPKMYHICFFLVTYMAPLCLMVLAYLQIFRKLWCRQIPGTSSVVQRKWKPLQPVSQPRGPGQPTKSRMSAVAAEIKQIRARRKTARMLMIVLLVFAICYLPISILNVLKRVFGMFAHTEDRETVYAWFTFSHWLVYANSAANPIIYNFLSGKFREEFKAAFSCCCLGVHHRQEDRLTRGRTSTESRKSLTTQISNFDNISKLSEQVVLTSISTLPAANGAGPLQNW
# Summary of the method: as §1
# Male SD rats = experiment: Effect on sleep in rat (brain wave measurement); format: in vivo
# Description: Male SD rats were purchased from Charles River Laboratories Japan, Inc. They were used for an experiment after an acclimation period of at least one week after carrying them in the animal experimental facility. They were bred in the animal experimental facility with environment in which 12-hours light-dark cycle was performed, humidity and temperature were controlled, and free water drinking and feeding were allowed.
# Electrodes for brain wave measurement were implanted in rat cortex, muscle electrodes were implanted in rat cervical muscle, and a transmitter was implanted under rat back skin. Rats in which chronic electrodes were implanted were fully acclimated to a box for brain wave measurement, and then the brain wave measurement was performed. The brain wave data was obtained using Dataquest ART manufactured by Data Sciences International. For analysis, wakefulness, non-REM sleep and REM sleep were automatically determined using Sleep Sign which is a program for sleep analysis study by KISSEI COMTEC Co., Ltd. The compound of Example 102 was subcutaneously administered at a dose of 3 mg/kg immediately before beginning of dark period. The sum of non-REM sleep and REM sleep 1 hr after the administration was regarded as total sleep. All data were shown as the mean+standard error. For statistical analysis, variance analysis to crossover was performed (*p ?0.05).
# [1] = Measurement of solubility; format: physicochemical; conditions: aqueous buffer, thermodynamic from solid; Britton-Robinson's Buffer pH 3, 37° C., shaking 2 hr; crystals from n-heptane suspension
# Description: n-Heptane was added to the compounds of Examples 1, 2 and 102 at 40 mg/mL, respectively, and the mixtures were continued to be stirred at room temperature in a suspended state. After 3 to 7 days, the mixtures were filtered, and the obtained crystals as a sample were subjected to powder X-ray diffraction measurement (measurement condition: mentioned above) and solubility measurement.
# Orexin-A-induced rats = experiment: Locomotor activity test using Orexin-A-induced rats; format: in vivo; conditions: rat; for Locomotor activity increased by cerebral ventricular administration of Orexin-A: 30 mg/kg subcutaneous; for Locomotor activity (Counts/90 min): 30 mg/kg subcutaneous 30 min before Orexin-A (1 nmol) cerebral ventricular administration, mean
# Description: The male SD rats described in Experimental Example 2 were used.
# From the day before drug administration, the animals were acclimated to a locomotor activity measurement apparatus (Muromachi Kikai Co., Ltd.). Solvent (0.5% (w/v) methyl cellulose solution) and the compound (30 mg/kg) of Example 1 or the compound (30 mg/kg) of Example 2 were subcutaneously administered 30 min before administration of saline or Orexin-A (1 nmol). The locomotor activity was quantified for 30 min to 90 min after the cerebral ventricular administration of Orexin-A. A comparison with saline+solvent administration group was tested by Student's t-test (*p≤0.05). A comparison with Orexin-A+solvent administration group was tested by Dunnett's test (#p≤0.05).
# [2] = 10 μM test compound, CHO cells expressing human OX1 receptor, OX-A 1 nM
# [3] = 10 μM test compound, CHO cells expressing human OX2 receptor, OX-A 0.3 nM
structure (smiles),measurement,setting,value
"Cc1cc(N2CCN(C(=O)c3cc(Cl)ccc3-n3nccn3)C[C@H](C)O2)nc(C)n1 [Example 102, (5-chloro-2-(2H-1,2,3-triazol-2-yl)phenyl)((7S)-2-(2,6-dimethylpyrimidin-4-yl)-7-methyl-1,2,5-oxadiazepan-5-yl)methanone]",Human Orexin1 receptor inhibition (at 10 μM),human OX1 receptor; [2],94%
same,inhibition at 10 µM,human OX2 receptor; [3],101%
same,Total sleep compared with solvent control group,Male SD rats; 3 mg/kg subcutaneous,significantly increased
same,Total sleep,"Male SD rats; 3 mg/kg subcutaneous immediately before dark period, sum of non-REM and REM sleep 1 hr after administration, mean",33.51 min
same,solubility at 2 h,[1],≥ 5000 µg/mL
"Cc1cc(N2CCN(C(=O)c3cc(F)ccc3-n3nccn3)C[C@H](C)O2)nc(C)n1 [Example 1, ((7S)-2-(2,6-dimethylpyrimidin-4-yl)-7-methyl-1,2,5-oxadiazepan-5-yl)(5-fluoro-2-(2H-1,2,3-triazol-2-yl)phenyl)methanone]",inhibition at 10 µM,human OX1 receptor; [2],47%
same,inhibition at 10 µM,human OX2 receptor; [3],98%
same,Locomotor activity increased by cerebral ventricular administration of Orexin-A,Orexin-A-induced rats,significantly decreased
same,Locomotor activity (Counts/90 min),Orexin-A-induced rats,3528 Counts/90 min
same,solubility at 2 h,[1],≥ 5000 µg/mL
"Cc1cc(N2CCN(C(=O)c3ccccc3-n3nccn3)C[C@H](C)O2)nc(C)n1 [Example 2, ((7S)-2-(2,6-dimethylpyrimidin-4-yl)-7-methyl-1,2,5-oxadiazepan-5-yl)(2-(2H-1,2,3-triazol-2-yl)phenyl)methanone]",inhibition at 10 µM,human OX1 receptor; [2],68%
same,inhibition at 10 µM,human OX2 receptor; [3],101%
same,Locomotor activity increased by cerebral ventricular administration of Orexin-A,Orexin-A-induced rats,significantly decreased
same,Locomotor activity (Counts/90 min),Orexin-A-induced rats,2638 Counts/90 min
same,solubility at 2 h,[1],≥ 5000 µg/mL
"Cc1cc(N2CCN(C(=O)c3ccccc3-c3ccccn3)CCO2)nc(C)n1 [Example 43, (2-(2,6-dimethylpyrimidin-4-yl)-1,2,5-oxadiazepan-5-yl)(2-(pyridin-2-yl)phenyl)methanone hydrochloride]",inhibition at 10 µM,human OX1 receptor; [2],35%
same,inhibition at 10 µM,human OX2 receptor; [3],91%
"Cc1ccc(-n2nccn2)c(C(=O)N2CCN(c3nc4cc(Cl)ccc4o3)OC[C@H]2C)c1 [Example 118, ((6R)-2-(5-chloro-1,3-benzoxazol-2-yl)-6-methyl-1,2,5-oxadiazepan-5-yl)(5-methyl-2-(2H-1,2,3-triazol-2-yl)phenyl)methanone]",inhibition at 10 µM,human OX1 receptor; [2],101%
same,inhibition at 10 µM,human OX2 receptor; [3],102%
"Cc1nc(N2CCN(C(=O)c3cc(F)c(F)cc3-c3ncccn3)C[C@H](C)O2)cc(C(F)(F)F)n1 [Example 227, (4,5-difluoro-2-(pyrimidin-2-yl)phenyl)((7S)-7-methyl-2-(2-methyl-6-(trifluoromethyl)pyrimidin-4-yl)-1,2,5-oxadiazepan-5-yl)methanone]",inhibition at 10 µM,human OX1 receptor; [2],78%
same,inhibition at 10 µM,human OX2 receptor; [3],97%
"Cc1cc(C)nc(N2CCN(C(=O)c3cccc4ncc(C)nc34)CCO2)n1 [Example 68, (2-(4,6-dimethylpyrimidin-2-yl)-1,2,5-oxadiazepan-5-yl) (3-methylquinoxalin-5-yl)methanone]",inhibition at 10 µM,human OX1 receptor,28%
same,inhibition at 10 µM,human OX2 receptor,87%
"Cc1cc(C)nc(N2CCN(C(=O)c3cccc4nsnc34)CCO2)n1 [Example 73, 2,1,3-benzothiadiazol-4-yl (2-(4,6-dimethylpyrimidin-2-yl)-1,2,5-oxadiazepan-5-yl)methanone]",inhibition at 10 µM,human OX1 receptor,13%
same,inhibition at 10 µM,human OX2 receptor,42%
"Cc1ncc(Cl)c(N2CCN(C(=O)c3cc(Cl)ccc3-c3ncccn3)[C@H](C)CO2)n1 [Example 230, ((6R)-2-(5-chloro-2-methylpyrimidin-4-yl)-6-methyl-1,2,5-oxadiazepan-5-yl)(5-chloro-2-(pyrimidin-2-yl)phenyl)methanone]",inhibition at 10 µM,human OX1 receptor; [2],66%
same,inhibition at 10 µM,human OX2 receptor; [3],103%
"Cc1ccc(-n2nccn2)c(C(=O)N2CCN(c3cccc(-n4cccn4)n3)OC[C@H]2C)c1 [Example 138, ((6R)-6-methyl-2-(6-(1H-pyrazol-1-yl)pyridin-2-yl)-1,2,5-oxadiazepan-5-yl) (5-methyl-2-(2H-1,2,3-triazol-2-yl)phenyl)methanone]",inhibition at 10 µM,human OX1 receptor,96%
same,inhibition at 10 µM,human OX2 receptor,95%
"CCc1ccc(-n2nccn2)c(C(=O)N2CCN(c3cc(C)nc(C)n3)O[C@@H](C)C2)c1 [Example 201, ((7S)-2-(2,6-dimethylpyrimidin-4-yl)-7-methyl-1,2,5-oxadiazepan-5-yl)(5-ethyl-2-(2H-1,2,3-triazol-2-yl)phenyl)methanone]",inhibition at 10 µM,human OX1 receptor; [2],60%
same,inhibition at 10 µM,human OX2 receptor; [3],101%

# From patent US10131653B2, “Heterocyclic compound” (TAKEDA PHARMACEUTICAL COMPANY LIMITED, priority 2015, dated 2018)
